# Reference: the METLIN SMRT retention time set (Domingo-Almenara et al. 2019)
# Assay: gradient 5% acetonitrile 3 min, to 50% in 2 min, to 85% in 15 min, held 3 min, 100 µL/min
# Conditions: column: Zorbax Extend-C18 2.1 x 50 mm; eluents: water / acetonitrile, 0.1% formic acid
# How it was run: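 Data were gathered over 3 months by HPLC coupled to a quadrupole time-of-flight mass spectrometer, operated in positive and negative ionization mode. Mixtures of ~100 pure standards ran on a Zorbax Extend-C18 column (2.1 × 50 mm, 1.8 μm) at 100 μL/min, with water and acetonitrile each containing 0.1% formic acid and dead and dwell volumes of 40 μL and 900 μL. Retention time was read from adduct peaks picked by computer and checked manually.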
row,Structure (SMILES),RP-LC retention time
1,CCOc1ccccc1-c1noc(Cn2c(=O)n(Cc3cccc(OC)c3)c(=O)c3sccc32)n1,1110 s
2,N#Cc1cccc(C(=O)N2CCc3cc(-c4ccno4)ccc32)c1,724 s
3,CCCn1cc(CCNC(=O)Nc2ccc(C)c(F)c2)c2cccnc21,807 s
4,Cc1nn(C)c(=O)c2cc(S(=O)(=O)NCc3ccc(F)cc3)cn12,766 s
5,CCc1nc(-c2ccc(OC3CCN(CCc4ccccc4)C3)cc2)no1 (configuration not stated),744 s
6,CC1Oc2ccccc2N(CC(=O)N2CCN(c3cc(=O)n(C)c(=O)n3C)CC2)C1=O (configuration not stated),656 s
7,CCCCC(=O)N1CCC2(C1)C(=O)N(C)c1ccccc12 (configuration not stated),743 s
8,CCN(Cc1ccccc1)C(=O)CN1C(=O)C2CCCCN2c2ccc(S(=O)(=O)N(C)C)cc21 (configuration not stated),647 s
9,COc1cc(CN(CC2CCCO2)C(=O)c2ccc(F)cc2)cc(OC)c1OC (configuration not stated),834 s
10,COc1cccc2cc(C(=O)NCc3cccnc3)oc12,564 s
11,CCCn1cc(CCNC(=O)c2ccccc2Br)c2cccnc21,748 s
12,COC(=O)C1=CN(c2ccc(C)c(F)c2)c2cc(F)ccc2S1(=O)=O,920 s
13,O=C(NCc1ccc(F)cc1Cl)c1sc2ncccc2c1-n1cccc1,1060 s
14,COc1ccc2c(ccn2CCNC(=O)C2CC(=O)N(c3n[nH]c4ccccc34)C2)c1 (configuration not stated),722 s
15,CC1=C(c2ccc(C)c(C)c2)S(=O)(=O)N=C1N1CCCN(C(=O)c2cccnc2)CC1,788 s
16,Cc1ccc(-c2ncc3c(=O)n(CC(=O)N4CCCC4)c(=O)n(C)c3n2)cc1,888 s
17,COCCNC(=O)c1ccccc1Sc1nccnc1Oc1ccccc1,852 s
18,COc1cc(NC(=O)c2cc(C(C)C)n3nccc3n2)cc(OC)c1OC,915 s
19,COc1ccc(-c2n[nH]c3c2C(c2cccc(O)c2)N(C)C3=O)cc1 (configuration not stated),686 s
20,CN(C)CCN(C)CCc1ccc(Cl)c(Cl)c1,639 s

# Continued, values first:
row,RP-LC retention time,Structure (SMILES)
1,645 s,CS(=O)(=O)N1CC(n2cc(C(=O)NCC3CC3)nn2)C1
2,603 s,CCn1cc(S(=O)(=O)N2C[C@@H](COC)[C@H](C(=O)NC)C2)cn1
3,840 s,CC1=C(c2cccc(Cl)c2)S(=O)(=O)N=C1N1CCC(NC(=O)C2CCC2)CC1
4,601 s,O=C(NCCN1CCCCCC1)c1ccc2c(c1)NC(=O)C1CCCCN21 (configuration not stated)
5,929 s,CSc1ccc(CNC(=O)C2CCCN(C(=O)c3[nH]c(C)c(C(=O)OC(C)C)c3C)C2)cc1 (configuration not stated)
6,615 s,CC(C)CNC(=O)CCC1CCN(c2cc(NC3CC3)ncn2)CC1
7,672 s,O=C(NCCc1cccs1)C1CCN(c2cc(N3CCCCC3)ncn2)CC1
8,872 s,O=C(NCCC1=CCCCC1)C1CCN(c2cnc(N3CCCCC3)nc2)CC1
9,932 s,Cc1ccc(NC(=O)N2CCC(C(C)C(=O)Nc3ccc(C)c(C)c3)CC2)cc1 (configuration not stated)
10,734 s,Cc1ccc(-c2nc3cnccn3c2NCCC(=O)NC(C)c2cccs2)cc1 (configuration not stated)
11,669 s,COc1ccc(-n2nc(C)c3sc(N(C)CC(=O)N4CCN(c5ccccn5)CC4)nc32)cc1
12,622 s,CC(C)CN1CCN(S(=O)(=O)c2cc(-c3nnc(C4CC4)o3)co2)CC1
13,575 s,Cc1cc(N2CCN(C(=O)c3ccc(N(C)C)cc3)CC2)nc2nncn12
14,1100 s,O=C(Nc1cccc(Cl)c1)C1CCN(S(=O)(=O)c2cc(-c3noc(C4CC4)n3)cs2)CC1
15,648 s,O=C(c1ccccn1)N1CCN(c2cc(-c3cccs3)[nH]n2)CC1
16,932 s,CCOC(=O)c1c(S(=O)(=O)N2CCC(C(=O)NC3CCCCCCC3)CC2)c(C)n(C)c1C
17,903 s,Cc1cnc(C(=O)N2CCCC2c2nc(CCOCC3CCCC3)no2)cn1 (configuration not stated)
